Experiments:
Test in all cases: combination Emax (second highest fraction inhibited in the dose matrix, 72 h); higher = more inhibition; extreme values may be limits of the assay
[1] = tested on: JHH-4 (Hepatocellular Carcinoma)
Method in brief: (§1)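 Cell lines grown in DMEM/F12 or RPMI with 10% FBS were plated in 1536-well plates and held 24 hours at 37°C, 5% CO2 before 72 hours of exposure to two-drug dose matrices, with DMSO typically at 0.2%. CellTiter-Glo 2.0 luminescence gave viability, which was converted to inhibition. Vehicle wells were set to 0 and blank wells to 1. Combination Emax is the second-highest inhibition in the matrix, and Bliss excess is the observed combination effect minus the expected EA + EB − EA·EB, where EA and EB are the single-agent effects.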

[2] = tested on: ESO51 (Esophageal Adenocarcinoma)
Method in brief: as §1

[3] = tested on: SUP-B15 (B-Lymphoblastic Leukemia)
Method in brief: as §1

[4] = tested on: H9 (T-Cell Non-Hodgkin's Lymphoma)
Method in brief: as §1

[5] = tested on: NCI-H2731 (Mesothelioma)
Method in brief: as §1

[6] = tested on: PC-3 (Prostate Carcinoma)
Method in brief: as §1

[7] = tested on: SNU-398 (Hepatocellular Carcinoma)
Method in brief: as §1

[8] = tested on: HCC1419 (Breast Carcinoma)
Method in brief: as §1

[9] = tested on: G-361 (Melanoma)
Method in brief: as §1

[10] = tested on: HCC1187 (Breast Carcinoma)
Method in brief: as §1

[11] = tested on: T-T (Esophageal Squamous Cell Carcinoma)
Method in brief: as §1

[12] = tested on: NCI-H526 (Small Cell Lung Carcinoma)
Method in brief: as §1

[13] = tested on: 8505C (Thyroid Gland Carcinoma)
Method in brief: as §1

[14] = tested on: NCCIT (Other Solid Carcinomas)
Method in brief: as §1

[15] = tested on: KP-3 (Pancreatic Carcinoma)
Method in brief: as §1

[16] = tested on: MOLM-13 (Acute Myeloid Leukemia)
Method in brief: as §1

[17] = tested on: RPMI-8226 (Plasma Cell Myeloma)
Method in brief: as §1

[18] = tested on: RD (Rhabdomyosarcoma)
Method in brief: as §1

[19] = tested on: DAN-G (Pancreatic Carcinoma)
Method in brief: as §1

[20] = tested on: KMS-12-BM (Plasma Cell Myeloma)
Method in brief: as §1

Row | SMILES | combination Emax [1] | combination Emax [2] | combination Emax [3] | combination Emax [4] | combination Emax [5] | combination Emax [6] | combination Emax [7] | combination Emax [8] | combination Emax [9] | combination Emax [10] | combination Emax [11] | combination Emax [12] | combination Emax [13] | combination Emax [14] | combination Emax [15] | combination Emax [16] | combination Emax [17] | combination Emax [18] | combination Emax [19] | combination Emax [20]
1 | CC1(C)CCC(CN2CCN(c3ccc(C(=O)NS(=O)(=O)c4ccc(NCC5CCOCC5)c([N+](=O)[O-])c4)c(Oc4cnc5[nH]ccc5c4)c3)CC2)=C(c2ccc(Cl)cc2)C1 [Venetoclax] + COc1cc(Nc2ncc3c(n2)-c2ccc(Cl)cc2C(c2c(F)cccc2OC)=NC3)ccc1C(=O)O [Alisertib] (first compound max 1 µM, 7x7, partner max 10 µM) | 0.602 | 0.213 | 1 | 0.802 | 0.364 | 0.321 | 0.498 | 0.15 | 0.415 | 0.744 | 0.487 | 0.852 | 0.275 | 0.51 | 0.103 | 1 | 0.685 | 0.543 | 0.425 | 1
2 | COc1cccc(OCCCN)c1-c1cc(Nc2cnc(C#N)cn2)n[nH]1 [Prexasertib] + C=CCn1c(=O)c2cnc(Nc3ccc(N4CCN(C)CC4)cc3)nc2n1-c1cccc(C(C)(C)O)n1 [AZD1775] (first compound max 1 µM, partner max 1 µM) | 0.701 | 0.757 | 0.978 | 1 | 0.544 | 0.442 | 0.514 | 0.269 | 0.765 | 0.819 | 0.888 | 0.937 | 0.727 | 0.917 | 0.472 | 1 | 1 | 0.75 | 0.801 | 1
3 | Cc1c2c(nn1C)CSCc1cc(n(C)n1)CSc1cc(c3ccccc3c1)OCCCc1c(C(=O)O)n(C)c3c-2c(Cl)ccc13 [AZD5991] + C[C@@H](Nc1cc(F)cc(F)c1)c1cc(C(=O)N(C)C)cc2c(=O)cc(N3CCOCC3)oc12 [AZD8186] (first compound max 1 µM, 7x7, partner max 3 µM) | 0.271 | 0.217 | 1 | 0.574 | 0.151 | 0.449 | 0.995 | 0.344 | 0.942 | 0.993 | 0.915 | 0.482 | 0.2 | 0.678 | 0.124 | 1 | 0.949 | 0.521 | 0.36 | 1
4 | CN(CCO)CC[C@H](CSc1ccccc1)Nc1ccc(S(=O)(=O)NC(=O)c2ccc(N3CCC([C@@H](O)c4ccccc4-c4ccc(Cl)cc4)CC3)cc2)cc1S(=O)(=O)C(F)(F)F [AZD4320] + C=CCn1c(=O)c2cnc(Nc3ccc(N4CCN(C)CC4)cc3)nc2n1-c1cccc(C(C)(C)O)n1 [AZD1775] (first compound max 1 µM, partner max 1 µM) | 0.688 | 0.775 | 1 | 1 | 0.328 | 0.204 | 0.739 | 0.0041 | 0.665 | 0.549 | 0.523 | 0.972 | 0.187 | 0.878 | 0.314 | 1 | 0.997 | 0.92 | 0.904 | 1
5 | CN(C)CCCOc1ccc(-c2ccc3ncc4c(c3c2)n(C2CCOCC2)c(=O)n4C)cn1 [AZD0156] + C=CCn1c(=O)c2cnc(Nc3ccc(N4CCN(C)CC4)cc3)nc2n1-c1cccc(C(C)(C)O)n1 [AZD1775] (first compound max 1 µM, partner max 1 µM) | 0.428 | 0.69 | 0.602 | 0.891 | 0.285 | 0.224 | 0.473 | 0.104 | 0.564 | 0.299 | 0.377 | 0.65 | 0.126 | 0.858 | 0.211 | 0.985 | 0.656 | 0.401 | 0.651 | 0.948
6 | Cc1cc2ncnn2cc1Nc1ncc2c(n1)n(C1CCOCC1)c(=O)n2C [AZD7648] + CCN(CCO)CCCOc1ccc2c(Nc3cc(CC(=O)Nc4cccc(F)c4)[nH]n3)ncnc2c1 [AZD2811] (first compound max 10 µM, 7x7, partner max 1 µM) | 0.245 | 0.227 | 0.875 | 0.722 | 0.409 | 0.243 | 0.363 | 0.285 | 0.359 | 0.824 | 0.276 | 0.356 | 0.212 | 0.334 | 0.237 | 1 | 0.392 | 0.214 | 0.554 | 0.574
7 | CC(=O)Nc1cccc(-n2c(=O)n(C3CC3)c(=O)c3c(Nc4ccc(I)cc4F)n(C)c(=O)c(C)c32)c1 [Trametinib] + Cc1nc(-c2cn3c(n2)-c2ccc(-c4cnn(C(C)(C)C(N)=O)c4)cc2OCC3)n(C(C)C)n1 [Taselisib] (first compound max 1 µM, 7x7, partner max 10 µM) | 0.997 | 0.987 | 1 | 0.984 | 0.498 | 0.503 | 0.56 | 0.649 | 0.996 | 0.456 | 0.903 | 0.304 | 0.496 | 0.73 | 0.446 | 1 | 0.755 | 0.972 | 0.999 | 0.636
8 | COc1cccc2c1C(=O)c1c(O)c3c(c(O)c1C2=O)C[C@@](O)(C(=O)CO)C[C@@H]3O[C@H]1C[C@H](N)[C@H](O)[C@H](C)O1 [Doxorubicin] + Cc1cc2ncnn2cc1Nc1ncc2c(n1)n(C1CCOCC1)c(=O)n2C [AZD7648] (first compound max 1 µM, 7x7, partner max 10 µM) | 0.666 | 0.611 | 0.987 | 1 | 0.715 | 0.431 | 0.595 | 0.535 | 0.926 | 0.724 | 0.624 | 0.988 | 0.846 | 0.825 | 0.152 | 1 | 0.976 | 0.493 | 0.735 | 0.84
9 | CC1(C)CCC(CN2CCN(c3ccc(C(=O)NS(=O)(=O)c4ccc(NCC5CCOCC5)c([N+](=O)[O-])c4)c(Oc4cnc5[nH]ccc5c4)c3)CC2)=C(c2ccc(Cl)cc2)C1 [Venetoclax] + C=CCn1c(=O)c2cnc(Nc3ccc(N4CCN(C)CC4)cc3)nc2n1-c1cccc(C(C)(C)O)n1 [AZD1775] (first compound max 1 µM, partner max 1 µM) | 0.343 | 0.647 | 1 | 0.966 | 0.286 | 0.29 | 0.711 | 0.254 | 0.589 | 0.442 | 0.711 | 0.835 | 0.244 | 0.907 | 0.307 | 1 | 0.538 | 0.546 | 0.747 | 1
10 | Cc1c2c(nn1C)CSCc1cc(n(C)n1)CSc1cc(c3ccccc3c1)OCCCc1c(C(=O)O)n(C)c3c-2c(Cl)ccc13 [AZD5991] + CCN(CCO)CCCOc1ccc2c(Nc3cc(CC(=O)Nc4cccc(F)c4)[nH]n3)ncnc2c1 [AZD2811] (first compound max 1 µM, 7x7, partner max 1 µM) | 0.315 | 0.195 | 1 | 0.959 | 0.273 | 0.305 | 0.991 | 0.308 | 0.964 | 1 | 0.95 | 0.8 | 0.866 | 0.674 | 0.186 | 1 | 0.965 | 0.546 | 0.702 | 1
11 | C[C@@H](c1ccc2nccn2c1)n1nnc2ncc(-c3cnn(C)c3)nc21 [Savolitinib] + CC1(C)CCC(CN2CCN(c3ccc(C(=O)NS(=O)(=O)c4ccc(NCC5CCOCC5)c([N+](=O)[O-])c4)c(Oc4cnc5[nH]ccc5c4)c3)CC2)=C(c2ccc(Cl)cc2)C1 [Venetoclax] (first compound max 1 µM, 7x7, partner max 1 µM) | 0.539 | 0.877 | 1 | 0.155 | 0.144 | 0.121 | 0.127 | 0.268 | 0.106 | 0.0587 | 0.236 | 0.621 | 0.12 | 0.182 | 0.131 | 0.923 | 0.106 | 0.143 | 0.0972 | 0.97
12 | C[C@@H](c1ccc2nccn2c1)n1nnc2ncc(-c3cnn(C)c3)nc21 [Savolitinib] + Cc1c2c(nn1C)CSCc1cc(n(C)n1)CSc1cc(c3ccccc3c1)OCCCc1c(C(=O)O)n(C)c3c-2c(Cl)ccc13 [AZD5991] (first compound max 1 µM, 7x7, partner max 1 µM) | 0.182 | 0.977 | 0.678 | 0.342 | 0.119 | 0.121 | 0.936 | 0.255 | 0.358 | 1 | 0.836 | 0.43 | 0.173 | 0.457 | 0.235 | 1 | 0.983 | 0.21 | 0.195 | 1

— the supplement of paper PMC11061612
